Experiment [1] deals with Wnt pathway activity (SW480 colon carcinoma cells stably expressing the Sp5-Luc reporter). In words: Wnt pathway activity screening assay (Sp5-Luc reporter gene assay). The note with it: Homo sapiens, SW480, Table 4; SW480 cells stably expressing Sp5-Luc reporter, 10-point dose-response from 10 μM, 36 to 48 hours. For orientation: In a reporter assay the amount or activity of a reporter protein is the signal.

In experiment [2] the target is CLK2 kinase (Homo sapiens, UniProt P49760). The experiment in a line: CLK2 kinase activity assay (Z-lyte FRET).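 Further: FRET read-out as coumarin to fluorescein emission ratio, unphosphorylated peptide as 0% and phosphorylated peptide as 100% controls, duplicate reactions, non-linear regression fit of dose-response curves.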 It counts as biochemical. The settings on record: Z-lyte Ser/Thr 6 peptide, 60 μM ATP, 1 h at room temperature.
Procedure: This is a non-radioactive assay using fluorescence resonance energy transfer (FRET) between coumarin and fluorescein to detect kinase activity which is represented as a ratio of coumarin emission/fluorescein emission.
The mixture was allowed to incubate with the representative compounds for one hour at room temperature. All reactions were performed in duplicate. Unphosphorylated (“0% Control”) and phosphorylated (“100% control”) forms of Ser/Thr 6 served as control reactions. Additionally, an 11-point dose-response curve of Staurosporine (1 μM top) was run to serve as a positive compound control.
After incubation, Development Reagent A was diluted in Development Buffer then added to the reaction and allowed to further incubate for one hour at room temperature.
Dose-response curves were generated and inhibitory concentration (IC50) values were calculated using non-linear regression curve fit in the Dotmatics' Studies Software (Bishops Stortford, UK).
For experiment [3], the target named is CLK3 kinase (Homo sapiens, UniProt P49761). The experiment in a line: CLK3 kinase activity assay (Z-lyte FRET).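 Further: kinase activity read as coumarin/fluorescein emission ratio by FRET, unphosphorylated peptide as 0% and phosphorylated peptide as 100% control, values from non-linear regression of dose-response curves.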 It counts as biochemical. The note with it: Z-lyte Ser/Thr 18 peptide, 156 μM ATP, 1 h at room temperature.
Experiment [4] deals with primary human mesenchymal stem cells (hMSCs). In words: Chondrogenesis screening using primary human mesenchymal stem cells. The settings on record: Homo sapiens, Mesenchymal stem cells, hMSC chondrogenesis; for EC50: concentration required to induce 50% levels of chondrogenesis with TGF-β3 as positive control, read-out: Conc (nM) of 50% TGF-β3 activity; for Emax: maximum activity relative to TGF-β3 (10 ng/mL) positive control, read-out: Max. Activity as % TGF-β3 activity. It counts as cell-based. The text has this: Representative compounds were screened using primary human mesenchymal stem cells (hMSCs) to determine their ability to induce chondrogenesis (process by which cartilage is developed).
Human Mesenchymal Stem Cell Culture: Primary human mesenchymal stem cells (hMSCs) were purchased from Lonza (Walkersville, Md.) and expanded in Mesenchymal Stem Cell Growth Media (Lonza). Cells between passage 3 and 6 were used for the experiments.
Area of nodules in each well was normalized to the average of 3 DMSO treated wells on the same plate using Excel (Microsoft Inc.). The normalized averages (fold change over DMSO) of 2 or 3 replicate wells for each compound concentration were calculated. Due to solubility limitations of some of the compounds, curve fitting was incomplete leading to inaccurate EC50 determinations.
Using TGF-β3 as a positive control, the concentration of representative compounds required to induce 50% levels of chondrogenesis is reported. In addition, the maximum activity of each compound and the respective dose that each compound reached maximum chondrogenesis activity is reported.

Each structure is given as a SMILES string.

CLK3 kinase, sequence (P49761 whole entry): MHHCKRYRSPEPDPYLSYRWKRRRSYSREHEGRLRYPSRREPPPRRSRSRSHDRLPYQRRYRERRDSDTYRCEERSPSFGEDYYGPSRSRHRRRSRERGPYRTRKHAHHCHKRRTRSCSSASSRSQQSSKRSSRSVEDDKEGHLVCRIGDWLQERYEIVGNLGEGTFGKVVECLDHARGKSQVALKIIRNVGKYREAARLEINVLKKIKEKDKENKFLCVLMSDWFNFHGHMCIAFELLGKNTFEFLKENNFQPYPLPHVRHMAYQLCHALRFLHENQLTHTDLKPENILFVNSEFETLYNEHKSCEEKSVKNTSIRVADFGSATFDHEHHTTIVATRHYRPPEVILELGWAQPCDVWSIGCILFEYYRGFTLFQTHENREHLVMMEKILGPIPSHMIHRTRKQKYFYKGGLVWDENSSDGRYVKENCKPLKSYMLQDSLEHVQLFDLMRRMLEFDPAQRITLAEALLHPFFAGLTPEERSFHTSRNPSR
CLK2 kinase, sequence (P49760 whole entry): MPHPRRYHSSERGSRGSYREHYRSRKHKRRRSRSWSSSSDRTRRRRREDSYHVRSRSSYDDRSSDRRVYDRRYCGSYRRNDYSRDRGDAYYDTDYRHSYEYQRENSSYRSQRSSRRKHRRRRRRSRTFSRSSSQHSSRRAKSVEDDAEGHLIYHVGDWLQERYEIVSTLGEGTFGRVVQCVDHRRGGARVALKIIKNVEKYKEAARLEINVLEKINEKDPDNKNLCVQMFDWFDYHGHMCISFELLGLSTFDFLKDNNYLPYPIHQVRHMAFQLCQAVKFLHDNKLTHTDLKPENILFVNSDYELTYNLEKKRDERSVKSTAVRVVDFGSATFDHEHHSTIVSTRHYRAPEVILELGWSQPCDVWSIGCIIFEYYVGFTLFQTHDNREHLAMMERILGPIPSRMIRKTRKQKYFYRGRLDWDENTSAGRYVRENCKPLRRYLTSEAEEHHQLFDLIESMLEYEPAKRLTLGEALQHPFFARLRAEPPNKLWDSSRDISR

In the case of `CCCCC(=O)Nc1cncc(-c2cc3c(-c4cc5c(-c6cc(F)cc(CNS(C)(=O)=O)c6)nccc5[nH]4)n[nH]c3cn2)c1` [compound 521], the EC50 is above 10000 nM in experiment [1], 9 nM in experiment [2], 776 nM in experiment [3] and 10 nM in experiment [4]. The Emax in experiment [4] came to 111%.

Turning to `CN1CCN(c2cccc3[nH]c(-c4n[nH]c5ccc(-c6cncc(CN7CCCCC7)c6)cc45)cc23)CC1` [compound 493], the EC50 in experiment [1] turned out to be 4970 nM; in experiment [2], 6 nM; in experiment [3], 912 nM; in experiment [4], 100 nM. Further, in experiment [4], the Emax worked out at 198%.

On to `FC1(F)CCN(Cc2cncc(-c3cnc4[nH]nc(-c5cc6c(-c7ccncc7)cccc6[nH]5)c4c3)c2)C1` [compound 401], for which the EC50 in experiment [1] was found to be 708 nM; in experiment [2] it was 15 nM; in experiment [3], 895 nM. In addition, the Emax in experiment [4] turned out to be 29.2%.

Turning to `CCC(=O)Nc1cncc(-c2ccc3[nH]nc(-c4cc5c(-c6cccc(F)c6)nccc5[nH]4)c3c2)c1` [compound 302], the EC50 in experiment [1] turned out to be 45 nM; in experiment [2] it was 6 nM; in experiment [3], 46 nM. In addition, in experiment [4], the Emax was 16.2%.

In the case of `O=C(Nc1cncc(-c2ccc3[nH]nc(-c4nc5ccncc5[nH]4)c3c2)c1)C1CC1` [compound 204], the EC50 in experiment [1] amounted to 8 nM; in experiment [2], 27 nM; in experiment [3], 206 nM. Besides, the Emax in experiment [4] turned out to be 93.8%.

On to `c1cncc(-c2cc3c(-c4nc5ccccc5[nH]4)n[nH]c3cn2)c1` [compound 200], for which the EC50 in experiment [1] was 20.1 nM; in experiment [2], 22 nM; in experiment [3], 209 nM; in experiment [4] it was 30 nM. Moreover, the Emax in experiment [4] was found to be 80.5%.

For the molecule `O=C(Nc1cncc(-c2ccc3[nH]nc(-c4cc5cnccc5[nH]4)c3c2)c1)C1CCC1` [compound 428], the EC50 in experiment [1] was found to be 75 nM; in experiment [2], 2 nM; in experiment [3] it was 19 nM. Besides, the Emax in experiment [4] is 213%.

In the case of `CN1CCN(c2nccc3[nH]c(-c4n[nH]c5ccc(-c6cncc(NC(=O)CC7CCNCC7)c6)cc45)cc23)CC1` [compound 484], the EC50 in experiment [1] is above 10000 nM; in experiment [2] it was 6 nM; in experiment [3] it was 428 nM. The Emax in experiment [4] was determined as 42.8%.

Turning to `Nc1cncc(-c2ccc3[nH]nc(-c4nc5c(-c6ccccc6F)ccnc5[nH]4)c3n2)c1` [compound 171], the EC50 in experiment [1] is above 10000 nM; in experiment [2] it was 1 nM; in experiment [3], 34 nM; in experiment [4] it was 10 nM. The Emax in experiment [4] was 127%.

With `CN(C)Cc1cncc(NC(=O)c2n[nH]c3ccc(-c4cncc(CN5CCCC5)c4)cc23)c1` [compound 70], the EC50 was found to be 330 nM in experiment [1], 1 nM in experiment [2] and 36 nM in experiment [3].

On to `CN1CCN(c2ccc(NC(=O)c3n[nH]c4ccc(-c5cncc(NC(=O)C6CC6)c5)cc34)cn2)CC1` [compound 55], for which the EC50 worked out at 80 nM in experiment [1], 1 nM in experiment [2] and 13 nM in experiment [3].

Consider `O=C(Nc1cccnc1)c1n[nH]c2ccc(-c3cncc(NC(=O)N4CCOCC4)c3)cc12` [compound 56], for which the figures for the EC50 in experiment [1], in experiment [2] and in experiment [3] were 1250 nM, 4 nM and 47 nM, respectively.

In the case of `O=C(Nc1ccnnc1)c1n[nH]c2ccc(-c3cccnc3)cc12` [compound 64], the EC50 stood at 106 nM in experiment [1], 1 nM in experiment [2] and 21 nM in experiment [3].

Take `Fc1cccc(-c2cncc3[nH]c(-c4n[nH]cc4C#Cc4cncc(OC5CCNCC5)c4)nc23)c1` [compound 33]: the EC50 in experiment [1] worked out at 4640 nM; in experiment [2] it was 3 nM; in experiment [3], 148 nM.

As for `CN1CCN(Cc2ccc(NC(=O)c3n[nH]c4ccc(-c5cccnc5)cc34)cn2)CC1` [compound 62], the EC50 in experiment [1] stood at 37 nM; in experiment [2], 1 nM; in experiment [3] it was 34 nM.

Regarding `Cc1ncc(NC(=O)c2n[nH]c3ccc(-c4cnc(C)n4C)cc23)s1` [compound 115], the values for the EC50 in experiment [1], in experiment [2] and in experiment [3] were 335 nM, 1 nM and 99 nM, respectively.

`CN(C)C(=O)Nc1cncc(-c2ccc3[nH]nc(C(=O)Nc4cccnc4)c3c2)c1` [compound 54]: the figures for the EC50 in experiment [1], in experiment [2] and in experiment [3] were 176 nM, 1 nM and 20 nM, respectively.

For `O=C(Nc1ccc2c(c1)OCCO2)c1n[nH]c2ccc(-c3cncc(CN4CCCCC4)c3)cc12` [compound 97], the EC50 amounted to 125 nM in experiment [1], 1 nM in experiment [2] and 60 nM in experiment [3].

For `Cc1n[nH]c2ccc(-c3cncc(NN4CCNCC4)n3)cc12` [compound 41], the EC50 in experiment [1] was 256 nM; in experiment [2], 1 nM; in experiment [3], 1420 nM.

On to `CNc1nc(NCc2ncccn2)c2c(-c3ccc4ncccc4c3)c[nH]c2n1` [compound 624], for which the values for the EC50 in experiment [1], in experiment [2] and in experiment [3] were 73.3 nM, 10 nM and 26 nM, respectively.

With `CC(C)CC(=O)Nc1cncc(-c2ccc3[nH]nc(-c4nc5c(N6CCN(C)CC6)cccc5[nH]4)c3c2)c1` [compound 217], the EC50 in experiment [1] is 268 nM; in experiment [2] it was 3 nM; in experiment [3] it was 40 nM.

In the case of `O=C(Nc1cc2cc(-c3cncc(NCC4(F)CNC4)n3)ncc2cn1)C1CC1` [compound 615], the EC50 worked out at 383 nM in experiment [1], 7 nM in experiment [2] and 53 nM in experiment [3].

With `O=C(Nc1cnccc1NC(=O)C1CC1)c1n[nH]c2ccc(-c3cccnc3)cc12` [compound 63], the values for the EC50 in experiment [1], in experiment [2] and in experiment [3] were 68 nM, 1 nM and 343 nM, respectively.

Take `CN1CCC(n2cc(C(=O)Nc3cc4cc(-c5cnn(C)c5)ccc4cn3)cn2)CC1` [compound 561]: the EC50 was 14 nM in experiment [1], 1 nM in experiment [2] and 6 nM in experiment [3].

Regarding `O=C(Nc1ccc(-c2ccccc2)nc1)c1n[nH]c2ccc(-c3cncc(CN4CCCCC4)c3)cc12` [compound 93], the EC50 in experiment [1] was 101 nM; in experiment [2], 5 nM; in experiment [3], 71 nM.

Regarding `O=C(Nc1cc2cc(-c3cncc(NC4CCNCC4)n3)ccc2cn1)C1CC(F)(F)C1` [compound 600], the EC50 in experiment [1] worked out at 381 nM; in experiment [2], 3 nM; in experiment [3] it was 78 nM.

`Nc1cncc(-c2ccc3[nH]nc(-c4cc5c(-c6cccnc6)nccc5[nH]4)c3c2)c1` [compound 347]: the values for the EC50 in experiment [1], in experiment [2] and in experiment [3] were 146 nM, 2 nM and 18 nM, respectively.

Take `CC(C)Nc1cncc(-c2ccc3cnc(NC(=O)C4CCN(CCF)CC4)cc3c2)n1` [compound 598]: the values for the EC50 in experiment [1], in experiment [2] and in experiment [3] were 178 nM, 8 nM and 52 nM, respectively.

In the case of `CN(C)CCN(C)c1ccc(NC(=O)c2n[nH]c3ccc(-c4cncc(CN5CCCCC5)c4)cc23)cn1` [compound 84], the figures for the EC50 in experiment [1], in experiment [2] and in experiment [3] were 65 nM, 1 nM and 14 nM, respectively.

With `Cc1cc2[nH]nc(C(=O)Nc3ccc(CN4CCCC4)cc3)c2cc1-c1cccnc1` [compound 60], the EC50 was 1090 nM in experiment [1], 2 nM in experiment [2] and 581 nM in experiment [3].

The record behind these values is patent publication US20230000842A1, “METHODS OF TREATING CARTILAGE DISORDERS THROUGH INHIBITION OF CLK AND DYRK” (SAMUMED, LLC, priority 2019, published 2023).
